Targets include HLA B*5101 (Homo sapiens, UniProt P01889, A329T/A93T/A95T/C349S/D138N/D201E/D98Y/E187L/E204Q/E69T/G107R/I218V/K202T/L105A/L119W/N104I/Q94N/R106L/R155S/R180L/S101N/S121T/S35A/S48A/V306I/V36M/Y195H/Y91F); HLA B*3501 (Homo sapiens, UniProt P01889, A329T/A93T/A95T/C349S/D201E/D98Y/E176V/E187L/E204Q/E69T/I218V/K202T/L119I/Q94N/R155S/R180L/S121R/S35A/S48A/T118I/V127L/V306I/V36M/Y140S/Y91F); HLA B*5401 (Homo sapiens, UniProt P01889, A329T/C349S/D138N/D201E/E176V/E187T/E204Q/E69G/I76V/K202T/L119W/R155S/R180L/S121T/S35A/S48A/V127L/V306I/V36M/Y140L); HLA A*6802 (Homo sapiens, UniProt P04439, A269V/D140Y/D185E/E176V/E277Q/E87N/F33Y/G231S/I121R/I166T/I218V/L180W/L300P/L318F/N151K/P208A/P217A/Q86R/R138H/R169H/S129P/T345S/V36M); H-2 D^d (Mus musculus, UniProt P01900); H-2 K^d (Mus musculus, UniProt P01902); HLA B*5802 (Homo sapiens, UniProt P01889, A329T/C349S/D201E/D98Y/E176V/E187L/E204Q/E69T/G107R/I218V/I90N/K202T/L105A/N104I/N87E/Q89R/Q94S/R106L/R155S/R180L/R86G/S101N/S121W/S35A/S48A/V127L/V306I/V36M/Y140S/Y91M); H-2 K^k (Mus musculus, UniProt P04223); HLA B*5301 (Homo sapiens, UniProt P01889, A329T/A93T/A95T/C349S/D201E/D98Y/E176V/E187L/E204Q/E69T/G107R/I218V/K202T/L105A/L119I/N104I/Q94N/R106L/R155S/R180L/S101N/S121R/S35A/S48A/T118I/V127L/V306I/V36M/Y140S/Y91F); H-2 D^b (Mus musculus, UniProt P01899); HLA B*5801 (Homo sapiens, UniProt P01889, A329T/C349S/D201E/D98Y/E176V/E187L/E204Q/E69T/G107R/I218V/I90N/K202T/L105A/L119I/N104I/N87E/Q89R/Q94S/R106L/R155S/R180L/R86G/S101N/S121R/S35A/S48A/T118I/V127L/V306I/V36M/Y140S/Y91M).

Holding throughout (format): binding
A further experiment addresses HLA B*1501 (Homo sapiens, UniProt P01889, A329T/A93T/A95T/C349S/D201E/D98Y/E187L/E204Q/E69M/E70A/K202T/N87E/Q94N/R155S/R180W/S121R/S35A/S48A/V306I/V36M/Y140S/Y91S). The experiment is described as follows: biochemical.
For the next experiment, the target named is HLA A*3201 (Homo sapiens, UniProt P04439, A270S/D101S/D185E/E176V/E277Q/F133L/G103R/G107R/G231S/H175R/I121M/I218V/I322F/K168Q/L105A/L300P/L318F/M331R/P208A/P217A/Q94H/R106L/R138Q/S129P/T104I/T323A/T345S/V100E/V321M/V358M). The experiment is described as follows: biochemical.
The target in a further experiment is HLA B*1503 (Homo sapiens, UniProt P01889, A329T/A93T/A95T/C349S/D201E/D98Y/E187L/E204Q/K202T/N87E/Q94N/R155S/R180L/S121R/S35A/V306I/V36M/Y140S/Y91S). Nature of the experiment: biochemical.
For another experiment, the target named is HLA B*0801 (Homo sapiens, UniProt P01889, A93T/A95T/D138N/E176V/E187T/K202T/Q94N/R180D/S35A/V36M/Y33D/Y91F). Nature of the experiment: biochemical.
The target of another experiment is HLA A*3001 (Homo sapiens, UniProt P04439, D140H/D185E/E176W/F33S/G80R/H175R/K168Q/R138E/R41S). Nature of the experiment: biochemical.

Results on six sequences are retold here after publication PMC2248166, “Quantitative peptide binding motifs for 19 human and mouse MHC class I molecules derived using positional scanning combinatorial peptide libraries” (Immunome Research, 2008).

H-2 K^k, sequence (P01887 21-119): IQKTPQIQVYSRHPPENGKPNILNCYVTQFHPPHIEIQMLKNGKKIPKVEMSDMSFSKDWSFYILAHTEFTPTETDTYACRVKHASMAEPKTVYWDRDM
H-2 K^k, sequence (P04223 22-369): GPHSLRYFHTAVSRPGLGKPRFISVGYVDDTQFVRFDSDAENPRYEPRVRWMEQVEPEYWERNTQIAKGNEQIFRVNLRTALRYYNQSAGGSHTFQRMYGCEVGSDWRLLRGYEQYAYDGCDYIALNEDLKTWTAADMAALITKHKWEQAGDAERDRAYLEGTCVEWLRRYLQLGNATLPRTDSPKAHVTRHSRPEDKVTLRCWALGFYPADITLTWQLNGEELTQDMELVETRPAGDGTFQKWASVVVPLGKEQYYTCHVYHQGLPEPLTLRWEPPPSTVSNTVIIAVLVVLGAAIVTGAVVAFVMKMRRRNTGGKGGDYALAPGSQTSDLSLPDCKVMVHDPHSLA
H-2 K^d, sequence (P01887 21-119): as the sequence (P01887 21-119) above
H-2 K^d, sequence (P01902 22-368): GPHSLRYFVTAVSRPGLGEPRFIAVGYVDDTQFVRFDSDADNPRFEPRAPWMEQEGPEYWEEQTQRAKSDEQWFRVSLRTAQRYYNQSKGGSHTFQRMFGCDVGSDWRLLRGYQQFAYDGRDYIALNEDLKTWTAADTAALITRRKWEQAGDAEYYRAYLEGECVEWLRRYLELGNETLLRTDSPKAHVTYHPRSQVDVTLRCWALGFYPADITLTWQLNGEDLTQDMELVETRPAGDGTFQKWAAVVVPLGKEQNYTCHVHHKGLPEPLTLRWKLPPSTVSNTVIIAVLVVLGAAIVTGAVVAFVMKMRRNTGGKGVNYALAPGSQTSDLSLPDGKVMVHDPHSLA
H-2 D^b, sequence (P01887 21-119): as the sequence (P01887 21-119) above
H-2 D^b, sequence (P01899 25-362): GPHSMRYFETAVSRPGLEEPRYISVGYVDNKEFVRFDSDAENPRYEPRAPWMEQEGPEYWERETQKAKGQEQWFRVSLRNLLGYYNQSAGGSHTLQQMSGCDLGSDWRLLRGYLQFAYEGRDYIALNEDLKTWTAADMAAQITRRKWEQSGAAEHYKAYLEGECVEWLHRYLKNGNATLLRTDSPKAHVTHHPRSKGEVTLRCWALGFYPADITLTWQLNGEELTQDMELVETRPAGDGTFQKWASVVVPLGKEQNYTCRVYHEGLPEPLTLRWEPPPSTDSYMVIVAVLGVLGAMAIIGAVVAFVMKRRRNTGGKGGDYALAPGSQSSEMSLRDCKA
H-2 D^d, sequence (P01900 whole entry, looked up): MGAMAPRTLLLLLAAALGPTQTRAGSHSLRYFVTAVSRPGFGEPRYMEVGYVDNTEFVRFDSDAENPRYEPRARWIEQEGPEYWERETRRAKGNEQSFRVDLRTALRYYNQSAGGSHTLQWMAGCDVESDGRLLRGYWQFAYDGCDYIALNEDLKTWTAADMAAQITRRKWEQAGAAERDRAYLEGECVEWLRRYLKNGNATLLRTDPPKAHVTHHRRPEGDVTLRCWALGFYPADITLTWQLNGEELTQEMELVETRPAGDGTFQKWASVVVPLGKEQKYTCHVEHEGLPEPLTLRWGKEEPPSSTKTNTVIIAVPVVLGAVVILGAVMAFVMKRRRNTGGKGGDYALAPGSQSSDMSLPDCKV

Consider XXXXXXXWX [3064.0159], for which the “Normalized average relative binding affinity(ARB)” value came to 0.035 on HLA B*1501; 0.20 on HLA B*5101; 0.047 at HLA B*3501; 0.051 on HLA B*5401; 0.089 at HLA A*3201; 0.13 at HLA B*1503. In addition, the “Normalized average relative binding affinity(ARB)” value at HLA A*6802 is recorded as 0.16; at H-2 D^d, 0.27; on HLA B*0801, 0.11; on H-2 K^d, 0.26; on HLA B*5802 it was 0.16; at H-2 K^k, 0.18. For the same sequence, the “Normalized average relative binding affinity(ARB)” value is on record as 0.099 at HLA B*5301, 0.13 at H-2 D^b, 0.84 at HLA B*5801 and 0.16 at HLA A*3001.

For the sequence XXXXXXKXX [3064.0129], the “Normalized average relative binding affinity(ARB)” value on HLA B*1501 stood at 0.15; at HLA B*5101, 0.12; on HLA B*3501 it was 0.073; at HLA B*5401 it was 0.089; on HLA A*3201, 0.030; at HLA B*1503, 0.091. The “Normalized average relative binding affinity(ARB)” value on HLA A*6802 was determined as 0.086; at H-2 D^d, 0.0067; on HLA B*0801 it was 0.26; on H-2 K^d it was 0.023; on HLA B*5802, 0.031; on H-2 K^k, 0.15. The “Normalized average relative binding affinity(ARB)” value at HLA B*5301 turned out to be 0.022; at H-2 D^b it was 0.062; on HLA B*5801, 0.037; on HLA A*3001, 0.062.

For the sequence XXXSXXXXX [3064.0076], the “Normalized average relative binding affinity(ARB)” value on HLA B*1501 came out at 1.0; at HLA B*5101, 0.92; on HLA B*3501, 0.090; on HLA B*5401, 0.14; on HLA A*3201, 0.26; on HLA B*1503, 0.78. For the same sequence, the “Normalized average relative binding affinity(ARB)” value is listed as 1.0 on HLA A*6802; 0.58 on H-2 D^d; 0.48 on HLA B*0801; 0.28 at H-2 K^d; 1.0 on HLA B*5802; 0.28 at H-2 K^k. Further, the “Normalized average relative binding affinity(ARB)” value is recorded as 0.44 at HLA B*5301, 0.83 at H-2 D^b, 0.74 at HLA B*5801 and 0.76 on HLA A*3001.

As for XXXXXXXHX [3064.0147], the “Normalized average relative binding affinity(ARB)” value worked out at 1.0 on HLA B*1501; 0.33 at HLA B*5101; 0.15 at HLA B*3501; 0.043 on HLA B*5401; 0.49 at HLA A*3201; 0.84 at HLA B*1503. In addition, the “Normalized average relative binding affinity(ARB)” value on HLA A*6802 worked out at 0.046; on H-2 D^d, 0.11; on HLA B*0801, 0.15; on H-2 K^d, 0.096; on HLA B*5802, 0.26; on H-2 K^k it was 0.0052. The “Normalized average relative binding affinity(ARB)” value on HLA B*5301 is given as 0.74; on H-2 D^b it was 0.073; on HLA B*5801, 0.18; at HLA A*3001, 0.44.

On to XXXMXXXXX [3064.0071], for which the “Normalized average relative binding affinity(ARB)” value at HLA B*1501 was 0.56; at HLA B*5101, 0.46; at HLA B*3501 it was 0.27; at HLA B*5401 it was 0.13; on HLA A*3201 it was 0.58; at HLA B*1503 it was 1.0. The “Normalized average relative binding affinity(ARB)” value on HLA A*6802 is 0.55; at H-2 D^d, 0.49; at HLA B*0801, 1.0; on H-2 K^d it was 0.22; at HLA B*5802, 0.44; on H-2 K^k, 0.42. In addition, the “Normalized average relative binding affinity(ARB)” value came to 0.46 at HLA B*5301, 0.65 at H-2 D^b, 0.54 on HLA B*5801 and 0.38 on HLA A*3001.

XXXXXXVXX [3064.0138]: the “Normalized average relative binding affinity(ARB)” value at HLA B*1501 is on record as 0.56; on HLA B*5101, 0.57; on HLA B*3501, 0.57; at HLA B*5401 it was 0.77; at HLA A*3201, 1.0; on HLA B*1503, 0.19. The “Normalized average relative binding affinity(ARB)” value is 0.80 at HLA A*6802; 0.045 on H-2 D^d; 0.55 on HLA B*0801; 0.13 on H-2 K^d; 0.073 at HLA B*5802; 0.079 on H-2 K^k. The “Normalized average relative binding affinity(ARB)” value turned out to be 0.32 on HLA B*5301, 0.57 at H-2 D^b, 0.53 on HLA B*5801 and 0.19 on HLA A*3001.
